Experimental data: article PMC6192554, “In vitro toxicity and efficacy of verdinexor, an exportin 1 inhibitor, on opportunistic viruses affecting immunocompromised individuals” (PLoS ONE, 2018)
pEC50: −log10 of the molar value. Values belong to the compound of their own block, whether it stands above or below them.

Key:
[1] = test system: Epstein-Barr virus (EBV) Akata strain; assay: EBV primary assay, DNA hybridization in induced Akata cells; type: cell-based
Description: (§1) EBV Akata strain was assayed in Akata cells (John Sixbey, LSU) latently infected with EBV (and therefore oncogenic). Cells were maintained in RPMI 1640, (Mediatech) with 10% FBS (Hyclone), L-glutamine, penicillin and gentamicin.
For Primary assay, Akata cells latently infected with EBV were induced to undergo lytic infection by addition of 50μg/ml of a goat anti-human IgG [16] and a dose-range of verdinexor (0.032 to 100 μM) was added for 72hr. Denaturation buffer was added and an aliquot aspirated through an Immobilon nylon membrane (Millipore, Bedford, MA). Dried membranes were equilibrated in DIG Easy Hyb solution (Roche Diagnostics, Indianapolis, IN) at 56°C. Specific DIG-labeled probes for EBV (S1 Table). (Roche Diagnostics). Membranes with EBV DNA were hybridized overnight followed by washes in 0.2× SSC and 0.1× SSC both with 0.1% SDS. Detection of specifically bound DIG probe was performed with anti-DIG antibody (Roche Diagnostics). An image of the photographic film was captured and quantified with QuantityOne software (Bio-Rad), and the EC50 were interpolated.

[2] = test system: Epstein-Barr virus (EBV) Akata strain; assay: EBV secondary assay, qPCR of viral DNA in induced Akata cells; type: cell-based
Description: as §1
Secondary assay for EBV were performed in Akata cells that were induced to undergo a lytic infection with 50μg/ml of a goat anti-human IgG antibody by methods we reported previously. Experimental compounds were diluted in round bottom 96-well plates to yield concentrations ranging from 0.0032–100μM. Akata cells were added to the plates at a concentration of 4×10^4 cells per well and […]. Assay plates were incubated for seven days at 37°C. For all assays, the replication of the virus was assessed by the quantification of viral DNA. For primer sequences, please see S1 Table. EBV DNA was purified according to manufacturer’s instructions (Wizard SV 96 Genomic DNA Purification System). The purified DNA was then subjected to qPCR that amplified a fragment corresponding to nucleotides 96802–97234 in the EBV genome (AJ507799). Plasmid pMP218 containing a DNA sequences corresponding to nucleotides 14120–14182 (AF148805.2) was used to provide absolute quantification of viral DNA. Compound concentrations sufficient to reduce genome copy number by 50% were calculated from experimental data.

KSHV strain BCBL-1 = assay: KSHV qPCR of viral DNA in PMA-induced BCBL-1 cells; type: cell-based, Kaposi's sarcoma-associated herpesvirus; settings: Human gammaherpesvirus 8, BCBL1, KSHV
Description: KSHV strain BCBL-1 was obtained as latently infected BCBL-1 cells through the NIH AIDS Research and Reference Reagent Program. BCBL-1 cells were maintained in growth medium consisting of RPMI 1640 supplemented with 10% FBS, penicillin, gentamicin, and l-glutamine.
To quantify virus, compound was diluted from 0.008–100μM and added to BCBL-1 cells induced to undergo a lytic infection by the addition of 100ng/ml phorbol 12-myristate 13-acetate (PMA) (Promega). After 7d, total DNA was prepared, and viral DNA was quantified by qPCR (see S1 Table for primer/probe sequences). Plasmid pMP218 containing a DNA sequence corresponding to nucleotides 14120–14182 (AF148805.2) was used to provide absolute quantification of viral DNA and EC50 [11].

[3] = test system: BK polyomavirus (BKPyV) Gardner strain; assay: BKPyV qPCR genome copy assay in HFF cells; type: cell-based; settings: Betapolyomavirus hominis
Description: (§2) John Cunningham polyomavirus (JCPyV) strains MAD-1 and MAD-4 and BK polyomavirus (BKPyV) Gardner strain were obtained from ATCC. COS-7 cells were obtained from ATCC and maintained according to ATCC-supplied protocols.
Primary assays for BKPyV were performed in 384-well plates containing monolayers of HFF cells. Compound dilutions ranging from 0.0032–100μM were prepared in plates containing cells which were subsequently infected at an MOI of 0.001. After a 7d incubation, total DNA was prepared using Extracta and genome copy number was quantified by qPCR using the primers and probe listed in S1 Table [18]. Plasmid pMP526 served as the DNA standard for quantification purposes. Compounds were confirmed in a similar assay in 96-well plates according to established laboratory protocols with the compounds added 1h […] to identify compounds that inhibit early stages of replication including adsorption and entry. Genome copy number was determined by methods described above.

[4] = test system: JC polyoma virus MAD-4 strain; assay: microbe, parasite or virus in culture; type: cell-based; settings: Polyomavirus sp., COS-7, JCPyV, primary screen, COS-7 cells
Description: as §2
Cytotoxicity assay was performed in a manner analogous to KSHV above. Evaluation of compounds against JCPyV virus was done in COS7 cells with the plasmid pMP508 to provide a standard curve for quantification.
Viral DNA was quantified (S1 Table) together with the plasmid pMP508 to provide a standard curve for absolute quantification. Secondary assays against JCV were also performed in COS7 cells by methods similar to those for BK virus to identify if verdinexor inhibited adsorption or entry of the virus.

HPV-11 = HPV-11 transient origin-plasmid replication assay in HEK293 cells (qPCR); type: cell-based, human papillomavirus
Description: HPV-11 and -18 were tested in HEK293 cells and primary human keratinocytes (PHK), respectively. PHKs were isolated from neonatal foreskins following circumcision according to IRB-approved protocols at UAB. They were grown in keratinocyte serum-free medium (Life Technologies) with mitomycin C-treated J2 feeder cells (Swiss 3T3 J2 fibroblasts; Elaine Fuchs, Rockefeller University). HEK 293 cells were maintained under standard conditions.
Quantification of virus was determined via transient replication of an HPV-11 replication origin-containing plasmid in HEK293 cells co-transfected with an HPV-11 replicative DNA helicase E1 and origin binding E2 protein [20]. 293 cells were cultured with test compounds added 4hr post-transfection for 2 days. Low molecular weight DNA was isolated, digested with Dpn1 and exonuclease III to eliminate unreplicated DNA. The Dpn1-resistant DNA was then subjected to qPCR analyses amplifying a small portion of the replication origin [20]. In a negative control, the E1 expression vector was omitted or cultures were treated with the inhibitor cidofovir.

Human CMV strain AD169 = assay: HCMV yield reduction assay in HFF cells; type: cell-based, human cytomegalovirus; settings: Human betaherpesvirus 5, AD169, HFF
Description: Human CMV strain AD169 was obtained from ATCC and assayed in human foreskin fibroblast cells (HFF). HFF cells were prepared at the University of Alabama at Birmingham (UAB) tissue procurement facility with IRB approval as previously described. Yield reduction assays for HCMV were performed on monolayers of HFF cells prepared in 96-well plates and incubated at 37°C for 1d to allow the cells to reach confluency. Media was then aspirated from the wells were infected at a high multiplicity of infection (MOI). At 1h following infection, the inocula were removed and the monolayers rinsed with fresh media. Compounds were then diluted in assay media consisting of MEM with Earl’s salts supplemented with 2% FBS, L-glutamine, penicillin, and gentamycin. Solutions ranging from 0.0032–10μM in primary assay and 0.032–100μM in secondary assay were added to the wells and the plates were incubated for various times, depending on the virus used and represents the length of a single replication cycle for the virus. A duplicate set of dilutions were also performed but remained uninfected to serve as a cytotoxicity control and received equal compound exposure. Supernatants from each of the infected wells were subsequently titered in a TCID50 assay to quantify the progeny virus.

[5] = human gammaherpesvirus 4, Akata

Compound: Nc1nc2c(ncn2COCCO)c(=O)[nH]1 [acyclovir, reference compound]
SI (Selectivity Index, CC50/EC50) ([1]; EBV, primary screen, DNA hybridization): > 7
pEC50 [1, 5]: 4.82
SI (Selectivity Index, CC50/EC50) ([2]; EBV, secondary screen, qPCR): > 13
pEC50 [2, 5]: 5.10

Compound: Nc1ccn(C[C@@H](CO)OCP(=O)(O)O)c(=O)n1 [cidofovir, reference compound]
pEC50 (KSHV strain BCBL-1; primary screen): > 6.32
pEC50 (KSHV strain BCBL-1; secondary screen): 5.77
pEC50 ([3]; primary screen): 5.35
pEC50 ([3]; secondary screen, compound added 1h post-infection): 5.69
pEC50 [4]: 5.41
pEC50 (HPV-11; Human papillomavirus, HPV-11, primary screen): 3.83
efficacy against HPV-11 (HPV-11; primary screen, qPCR): did not show efficacy

pEC50 (Human CMV strain AD169; primary screen): 6.29
pEC50 (Human CMV strain AD169; secondary screen): 5.40
Compound: Nc1nc(O)c2ncn(COC(CO)CO)c2n1 [ganciclovir, reference compound]
